Test results published in ChEMBL document CHEMBL4304741, “Modification and Biological Evaluation of a Series of 1,5-Diaryl-1,2,4-triazole Compounds as Novel Agents against Pancreatic Cancer Metastasis through Targeting Myoferlin” (J Med Chem, 2019).
The source made the active and inactive calls. The rule behind the calls is not given here.

Legend:
Capan-2 [1] = experiment: Antimigratory activity against human Capan2 cells measured after 36 hrs in presence of mitomycin C using crystal violet staining by inverted microscopy-based transwell assay; assay type: functional, cell-based
[2] = target: Epidermal growth factor receptor (Homo sapiens) (UniProt P00533); experiment: Effect on EGF-stimulated EGFR phosphorylation in MYOF-knockout human PANC1 cells at 400 nM by Western blot analysis
Myoferlin [3] = target: T1, Myoferlin (Homo sapiens, UniProt Q9NZM1); experiment: Inhibition of MYOF in human PANC1 cells assessed as increase in EGF-stimulated EGFR phosphorylation by Western blot analysis; assay type: cell-based
PANC-1 [4] = experiment: Effect on VEGFR2 expression in MYOF-knockout human PANC1 cells up to 400 nM by Western blot analysis; assay type: functional, cell-based
PANC-1 [5] = experiment: Effect on dynein expression in human PANC1 cells up to 400 nM by Western blot analysis; assay type: functional, cell-based
Cytochrome P450 2C9 = Cytochrome P450 2C9 (Homo sapiens, UniProt P11712); experiment: Inhibition of CYP2C9 in human liver microsomes using tolbutamide as substrate preincubated for 5 mins followed by NADPH-generating system addition and measured after 20 mins by LC-MS/MS analysis
Myoferlin [6] = target: T1, Myoferlin; experiment: Reversible binding affinity to recombinant human GST-tagged MYOF C2 domain (3445 to 3912 residues) expressed in Escherichia coli BL21 (DE3) by surface plasmon resonance analysis
MIA PaCa-2 [7] = experiment: Antimigratory activity against human MIAPaCa2 cells measured after 24 hrs in presence of mitomycin C using crystal violet staining by inverted microscopy-based transwell assay; assay type: functional, cell-based
Myoferlin [8] = target: T1, Myoferlin; experiment: Inhibition of MYOF in human PANC1 cells assessed as reversal of epithelial-mesenchymal transition by measuring up regulation of E-cadherin expression up to 400 nM by Western blot analysis; assay type: cell-based
Cytochrome P450 2E1 = Cytochrome P450 2E1 (Homo sapiens, UniProt P05181); experiment: Inhibition of CYP2E1 in human liver microsomes using chlorzoxazone as substrate preincubated for 5 mins followed by NADPH-generating system addition and measured after 20 mins by LC-MS/MS analysis
PANC-1 [9] = experiment: Effect on Twist1 expression in human PANC1 cells up to 400 nM by Western blot analysis; assay type: functional, cell-based
MCF-10A = experiment: Cytotoxicity against human MCF10A cells assessed as reduction in cell viability measured after 48 hrs by MTS assay; assay type: cell-based
PANC-1 [10] = experiment: Antiinvasive activity against human PANC1 cells measured after 18 hrs in presence of mitomycin C using crystal violet staining by inverted microscopy-based matrigel coated transwell assay; assay type: functional, cell-based; conditions: PANC-1, 18 h
PANC-1 [11] = experiment: Antimetastatic activity against human PANC1 cells harboring luciferase reporter gene xenografted in Balb/c nude mouse assessed as mouse survival at 25 mg/kg/day, ip (reference value: 25%); assay type: functional; conditions: PANC-1, ip
PANC-1 [12] = experiment: Effect on Snail1 expression in human PANC1 cells up to 400 nM by Western blot analysis; assay type: functional, cell-based
Capan-2 [13] = experiment: Cytotoxicity against human Capan2 cells assessed as reduction in cell viability measured after 48 hrs by MTS assay; assay type: cell-based; conditions: Capan-2, 48 h
PANC-1 [14] = experiment: Antimetastatic activity against human PANC1 cells harboring luciferase reporter gene xenografted in Balb/c nude mouse assessed as reduction in lung metastasis burden by measuring reduction in luminescence at 25 mg/kg/day, ip measured every 10 days by bioluminescence imaging analysis relative to control; assay type: functional
PANC-1 [15] = experiment: Effect on myosin 2A expression in human PANC1 cells up to 400 nM by Western blot analysis; assay type: functional, cell-based
[16] = Toxicity in Balb/c nude mouse xenografted with PANC1 cells assessed as pathological changes in kidney at 25 to 50 mg/kg/day, ip by H and E staining-based microscopic analysis; assay type: organism-based; conditions: in vivo
PANC-1 [17] = experiment: Effect on EGFR expression in MYOF-knockout human PANC1 cells up to 400 nM by Western blot analysis; assay type: functional, cell-based
PANC-1 [18] = experiment: Effect on MMP2 secretion in MYOF-knockout human PANC1 cells up to 400 nM by Western blot analysis; assay type: functional, cell-based
[19] = Toxicity in Balb/c nude mouse xenografted with PANC1 cells assessed as pathological changes in lung at 25 to 50 mg/kg/day, ip by H and E staining-based microscopic analysis; assay type: organism-based; conditions: in vivo
PANC-1 [20] = experiment: Cytotoxicity against human PANC1 cells assessed as reduction in cell viability measured after 48 hrs by MTS assay; assay type: cell-based; conditions: PANC-1, 48 h
PANC-1 [21] = experiment: Antimetastatic activity against human PANC1 cells harboring luciferase reporter gene xenografted in Balb/c nude mouse assessed as mouse survival at 50 mg/kg/day, ip (reference value: 25%); assay type: functional; conditions: PANC-1, ip
PANC-1 [22] = experiment: Antimetastatic activity against human PANC1 cells harboring luciferase reporter gene xenografted in Balb/c nude mouse administered intraperitoneally once daily measured every 10 days by bioluminescence imaging analysis; assay type: functional, cell-based
MIA PaCa-2 [23] = experiment: Cytotoxicity against human MIAPaCa2 cells assessed as reduction in cell viability measured after 48 hrs by MTS assay; assay type: cell-based; conditions: MIA PaCa-2, 48 h

T1 sequence (Q9NZM1 whole entry): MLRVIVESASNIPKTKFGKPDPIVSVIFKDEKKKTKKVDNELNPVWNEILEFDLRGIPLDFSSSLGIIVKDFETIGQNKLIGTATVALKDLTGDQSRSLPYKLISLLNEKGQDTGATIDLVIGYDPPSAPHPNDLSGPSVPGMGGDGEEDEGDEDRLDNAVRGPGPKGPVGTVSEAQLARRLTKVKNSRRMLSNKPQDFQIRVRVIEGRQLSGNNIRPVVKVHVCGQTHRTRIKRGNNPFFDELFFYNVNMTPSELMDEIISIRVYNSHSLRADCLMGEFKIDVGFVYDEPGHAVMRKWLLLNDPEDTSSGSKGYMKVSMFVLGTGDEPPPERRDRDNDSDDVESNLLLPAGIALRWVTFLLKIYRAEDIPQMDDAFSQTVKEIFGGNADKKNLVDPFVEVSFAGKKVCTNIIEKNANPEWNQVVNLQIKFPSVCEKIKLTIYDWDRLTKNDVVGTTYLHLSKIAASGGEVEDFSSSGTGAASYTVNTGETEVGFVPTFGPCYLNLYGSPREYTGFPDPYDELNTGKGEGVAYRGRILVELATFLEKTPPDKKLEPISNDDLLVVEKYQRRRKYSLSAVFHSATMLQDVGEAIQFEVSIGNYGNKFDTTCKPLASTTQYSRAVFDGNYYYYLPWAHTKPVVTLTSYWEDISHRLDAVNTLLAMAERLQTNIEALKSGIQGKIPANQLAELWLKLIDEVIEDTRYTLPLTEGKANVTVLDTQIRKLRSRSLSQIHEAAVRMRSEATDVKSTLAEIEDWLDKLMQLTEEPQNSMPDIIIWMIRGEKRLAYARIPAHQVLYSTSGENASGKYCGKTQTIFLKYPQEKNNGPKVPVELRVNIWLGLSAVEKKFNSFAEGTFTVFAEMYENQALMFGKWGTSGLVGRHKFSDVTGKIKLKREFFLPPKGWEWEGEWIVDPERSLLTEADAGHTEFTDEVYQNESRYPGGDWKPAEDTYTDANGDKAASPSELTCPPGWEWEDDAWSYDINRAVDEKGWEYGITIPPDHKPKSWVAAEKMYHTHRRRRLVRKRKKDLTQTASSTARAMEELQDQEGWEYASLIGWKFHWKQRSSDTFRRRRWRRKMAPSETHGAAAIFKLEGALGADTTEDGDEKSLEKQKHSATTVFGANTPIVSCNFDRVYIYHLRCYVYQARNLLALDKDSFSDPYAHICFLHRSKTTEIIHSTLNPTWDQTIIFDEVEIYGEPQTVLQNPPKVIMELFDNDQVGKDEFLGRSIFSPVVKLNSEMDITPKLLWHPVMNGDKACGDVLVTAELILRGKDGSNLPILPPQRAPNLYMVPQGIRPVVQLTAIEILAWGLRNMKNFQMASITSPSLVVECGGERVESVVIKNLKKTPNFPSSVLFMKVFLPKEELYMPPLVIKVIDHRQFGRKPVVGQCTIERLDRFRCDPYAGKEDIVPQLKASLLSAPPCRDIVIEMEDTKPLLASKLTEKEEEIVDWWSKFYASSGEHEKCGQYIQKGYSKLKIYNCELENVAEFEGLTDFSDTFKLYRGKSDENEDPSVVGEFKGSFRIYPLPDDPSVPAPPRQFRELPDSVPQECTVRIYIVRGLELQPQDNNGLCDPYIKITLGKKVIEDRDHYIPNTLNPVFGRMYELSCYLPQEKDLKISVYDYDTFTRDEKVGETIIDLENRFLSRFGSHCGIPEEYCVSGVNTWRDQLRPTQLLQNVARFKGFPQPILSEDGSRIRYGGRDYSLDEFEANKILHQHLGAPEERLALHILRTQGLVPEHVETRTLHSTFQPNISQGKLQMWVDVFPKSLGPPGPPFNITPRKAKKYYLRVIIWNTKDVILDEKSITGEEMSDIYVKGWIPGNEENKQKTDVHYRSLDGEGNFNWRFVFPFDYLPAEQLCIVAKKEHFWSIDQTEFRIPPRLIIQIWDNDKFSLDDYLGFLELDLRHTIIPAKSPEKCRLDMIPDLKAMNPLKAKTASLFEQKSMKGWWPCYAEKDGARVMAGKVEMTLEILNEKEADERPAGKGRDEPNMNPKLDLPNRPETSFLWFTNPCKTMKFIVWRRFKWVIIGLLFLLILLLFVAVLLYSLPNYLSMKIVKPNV
Chain of Cytochrome P450 2C9 (P11712 whole entry, the tested form may be a part): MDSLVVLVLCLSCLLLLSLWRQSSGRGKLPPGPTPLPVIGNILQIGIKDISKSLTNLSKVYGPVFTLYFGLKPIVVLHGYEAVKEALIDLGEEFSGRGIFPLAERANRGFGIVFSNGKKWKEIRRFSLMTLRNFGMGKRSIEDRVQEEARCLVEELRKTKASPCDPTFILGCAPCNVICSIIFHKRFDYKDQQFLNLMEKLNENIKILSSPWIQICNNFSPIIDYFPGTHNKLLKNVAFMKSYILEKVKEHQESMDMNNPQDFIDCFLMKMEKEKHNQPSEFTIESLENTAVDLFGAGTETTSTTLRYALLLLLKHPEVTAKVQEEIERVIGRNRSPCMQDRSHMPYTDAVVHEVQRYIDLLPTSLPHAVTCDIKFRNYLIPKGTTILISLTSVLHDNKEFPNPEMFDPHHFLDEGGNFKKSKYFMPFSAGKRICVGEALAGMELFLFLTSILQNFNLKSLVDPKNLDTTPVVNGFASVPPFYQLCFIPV
Chain of Epidermal growth factor receptor (Homo sapiens) (P00533 whole entry): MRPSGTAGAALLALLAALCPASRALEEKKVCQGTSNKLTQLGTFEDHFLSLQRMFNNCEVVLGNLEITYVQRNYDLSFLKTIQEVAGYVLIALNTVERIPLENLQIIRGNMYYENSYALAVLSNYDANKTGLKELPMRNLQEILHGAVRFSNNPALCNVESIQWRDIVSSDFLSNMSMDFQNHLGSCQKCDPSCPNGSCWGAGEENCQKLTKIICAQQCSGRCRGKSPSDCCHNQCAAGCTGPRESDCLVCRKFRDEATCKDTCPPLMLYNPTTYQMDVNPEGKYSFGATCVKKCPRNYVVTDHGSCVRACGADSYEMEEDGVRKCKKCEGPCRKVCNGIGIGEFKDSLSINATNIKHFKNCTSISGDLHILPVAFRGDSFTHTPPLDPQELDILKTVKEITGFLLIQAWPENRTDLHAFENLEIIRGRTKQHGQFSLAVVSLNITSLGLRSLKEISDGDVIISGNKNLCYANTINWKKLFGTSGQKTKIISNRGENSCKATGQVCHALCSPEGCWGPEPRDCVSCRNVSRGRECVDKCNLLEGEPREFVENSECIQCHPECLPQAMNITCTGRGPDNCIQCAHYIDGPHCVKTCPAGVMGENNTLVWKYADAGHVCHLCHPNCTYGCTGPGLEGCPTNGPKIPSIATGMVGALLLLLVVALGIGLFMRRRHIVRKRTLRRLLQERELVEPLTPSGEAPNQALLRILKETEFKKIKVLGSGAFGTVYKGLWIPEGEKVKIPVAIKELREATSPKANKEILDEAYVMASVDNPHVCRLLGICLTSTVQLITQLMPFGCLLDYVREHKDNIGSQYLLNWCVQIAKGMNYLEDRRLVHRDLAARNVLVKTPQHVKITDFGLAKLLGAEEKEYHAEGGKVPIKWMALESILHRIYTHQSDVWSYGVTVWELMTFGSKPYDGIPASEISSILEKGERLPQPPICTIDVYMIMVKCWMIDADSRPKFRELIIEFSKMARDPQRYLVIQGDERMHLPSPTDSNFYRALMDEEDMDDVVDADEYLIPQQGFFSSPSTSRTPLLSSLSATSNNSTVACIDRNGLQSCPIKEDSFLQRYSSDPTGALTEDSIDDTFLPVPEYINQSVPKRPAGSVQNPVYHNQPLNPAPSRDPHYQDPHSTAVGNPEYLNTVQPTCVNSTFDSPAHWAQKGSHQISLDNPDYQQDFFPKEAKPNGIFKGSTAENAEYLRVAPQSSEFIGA
Chain of Cytochrome P450 2E1 (P05181 whole entry): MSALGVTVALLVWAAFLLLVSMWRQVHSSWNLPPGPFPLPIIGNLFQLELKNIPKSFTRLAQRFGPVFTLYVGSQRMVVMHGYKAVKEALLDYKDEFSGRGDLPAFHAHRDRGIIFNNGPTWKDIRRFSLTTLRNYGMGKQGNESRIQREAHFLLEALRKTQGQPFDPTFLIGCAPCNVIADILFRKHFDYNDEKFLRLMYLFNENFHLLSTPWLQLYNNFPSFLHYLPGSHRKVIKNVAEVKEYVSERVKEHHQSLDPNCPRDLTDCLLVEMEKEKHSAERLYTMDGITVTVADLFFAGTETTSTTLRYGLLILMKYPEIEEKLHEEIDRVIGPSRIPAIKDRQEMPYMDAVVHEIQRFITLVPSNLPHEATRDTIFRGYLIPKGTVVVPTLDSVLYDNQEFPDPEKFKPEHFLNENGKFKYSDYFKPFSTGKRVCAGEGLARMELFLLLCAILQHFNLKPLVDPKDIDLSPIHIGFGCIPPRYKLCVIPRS

In the case of CCc1nc(-c2ncc(OC)cn2)n(-c2cccc(C(=O)NCCCCc3ccccc3)c2)n1, the Activity (Capan-2 [1]) is reported as “Dose-dependent effect”, the Activity [2] is reported as “inactive” and the inhibition (Myoferlin [3]) is reported as “Dose-dependent effect”. For the same molecule, the Activity (PANC-1 [4]) was “inactive”, the Activity (PANC-1 [5]) was “inactive” and the IC50 (Cytochrome P450 2C9) was 20500 nM. The Activity (Myoferlin [6]) was “Dose-dependent effect”, the Kd (Myoferlin [6]) was 94 nM and the Activity (MIA PaCa-2 [7]) was “Dose-dependent effect”. For the same molecule, the inhibition (Myoferlin [8]) was “Active”, the IC50 (Cytochrome P450 2E1) was > 50000 nM and the Activity (PANC-1 [9]) was “inactive”. The IC50 (MCF-10A) was 27600 nM, the IC50 (PANC-1 [10]) was 120 nM and the survival at 25 mg/kg/day (PANC-1 [11]) was 75%. For the same molecule, the Activity (PANC-1 [12]) was “inactive”, the IC50 (Capan-2 [13]) was 2850 nM and the “fold change (FC)” value (PANC-1 [14]) was 3. For the same molecule, the Activity (PANC-1 [15]) was “inactive”, the Activity [16] was “Non-Toxic” and the Activity (PANC-1 [17]) was “inactive”. The Activity (PANC-1 [18]) was “inactive”, the Activity [19] was “Non-Toxic” and the IC50 (PANC-1 [20]) was 840 nM. For the same molecule, the survival at 50 mg/kg/day (PANC-1 [21]) was 87.5%, the Activity (PANC-1 [22]) was “Dose-dependent effect” and the IC50 (MIA PaCa-2 [23]) was 1540 nM.
